Results reported in patent US12286400B2, “Isofagomine salts, methods of use and formulations” (TAKEDA PHARMACEUTICAL COMPANY LIMITED, priority 2019, dated 2025).

Columns and labels:
[1] = Storage stress-tests at 80° C. in closed vials (CAD-HPLC, 1H-NMR, XRPD); type: physicochemical
Procedure: In order to obtain insight regarding thermal stability of the four crystalline IFG salts, storage stress-tests at 80° C. over several days were conducted. A sample of the free base (SP245-FB-P4), a fumarate sample (SP245-FUM-P5), a D-tartrate sample (SP245-DTA-P7), an L-tartrate sample (SP245-LTA-P5) and an oxalate sample SP245-OXA-P2 were stored at 80° C. for one, three and seven days in closed vials. Samples were tested by CAD and ^1H-NMR.
CAD-HPLC was performed in order to identify the possible adducts or thermal degradation product that could be generated upon storage under the given conditions. All samples were examined by CAD-HPLC; however, no considerable changes were observed between the starting materials and the stored samples. […] In addition, XRPD was carried out for the seven-day stored crystalline salt samples and the XRPD patterns before and after storage were essentially identical.
NMR spectroscopy was conducted on the seven-day stored samples.

[2] = tested on: mutant GCase; settings: in vitro, fibroblasts from Gaucher patients; cited from earlier work
[3] = Dynamic vapor sorption (DVS); type: physicochemical; settings: for additional weight gain upon storage at 95% RH: holding at 95% RH; for mass gain until 95% RH: scanning up to 95% RH; for gain in weight when increasing the RH from 0 to 80%: RH 0 to 80%
Description: The behavior of the IFG quinate salt, sample SP245-QNC-P2, was investigated in the presence of variable water vapor pressure using DVS measurement. The result from the DVS test is presented in FIG. 6 and FIG. 6B as the DVS isotherm of sample SP245-QNC-P2: the change of relative sample weight (red curve) and relative humidity (blue curve) as a function of time.
The SP245-QNC-P2 salt prepared in example 1 is hygroscopic at high relative humidity; i.e., above about 80% RH.
The effect of changes in relative humidity on the IFG fumarate sample SP245-FUM-P4 was studied using DVS.
The IFG fumarate salt is hygroscopic at relative humidities above about 80%.
The effect of changes in relative humidity on the IFG oxalate salt sample SP245-OXA-P1 was studied using DVS.
The oxalate salt is hygroscopic above 80% RH.
The effect of changes in relative humidity on the crystalline IFG tartrate salt sample SP245-DTA-P3 was studied using DVS.

[4] = TG-FTIR thermogram; type: physicochemical
Procedure: The obtained crystalline form SP245-QNC-P2 is anhydrous/non-solvated. […] Decomposition is observable above 200° C.
The fumarate salt is a solvent and water-free form. Decomposition is observable above 150° C.

| Compound | CAD-HPLC Area % ([1]; 80° C., closed vial, 1 day) | CAD-HPLC Area % ([1]; 80° C., closed vial, 3 days) | CAD-HPLC Area % ([1]; 80° C., closed vial, 7 days) | CAD-HPLC Area % ([1]; starting material) | relative humidity above which the salt is hygroscopic ([3]; DVS) | gain in weight when increasing the RH from 0 to 75% ([3]; DVS, RH 0 to 75%) | weight change when decreasing the relative humidity from 50 to 0% ([3]; DVS, RH 50 to 0%) | additional weight gain upon storage at 95% RH ([3]; DVS) | mass gain until 95% RH ([3]; DVS) | XRPD of sample recovered after DVS measurement [3] | gain in weight when increasing the RH from 0 to 80% ([3]; DVS) | weight loss when decreasing the relative humidity from 50 to 0% RH ([3]; DVS, RH 50 to 0%) | gain in weight at 95% RH compared to the first cycle ([3]; DVS, second cycle) | Decomposition observable above [4] | NMR after storage compared to the non-stressed sample ([1]; 80° C., seven days) | effect on activity of mutant GCase [2] | relative humidity up to which the salt is not hygroscopic ([3]; DVS) | mass change upon increasing the relative humidity from 0% to 70% ([3]; DVS, RH 0% to 70%) |
| --- | --- | --- | --- | --- | --- | --- | --- | --- | --- | --- | --- | --- | --- | --- | --- | --- | --- | --- |
| OC[C@H]1CNC[C@@H](O)[C@@H]1O [SP245-FB-P4, (3R,4R,5R)-3,4-dihydroxy-5-hydroxymethylpiperidine, reference compound] | 80.2% | 80.6% | 80.4% | 81.1% | – | – | – | – | – | – | – | – | – | – | several additional NMR signals were observed after storage | increase the activity of mutant GCase | – | – |
| isofagomine fumarate [SP245-FUM-P4] | 86.9% | 87.1% | 87.8% | 87.9% | about 80 % RH | – | – | 47% | 11% | correspond to the sample SP245-FUM-P4 used as starting material | no considerable gain in sample mass | < 1 weight % | 5% | above 150 °C | – | – | – | – |
| isofagomine D-(−)-tartrate [SP245-DTA-P3] | 85% | 85.1% | 85.6% | 86.3% | – | – | – | 70% | 32% | – | – | – | – | – | – | – | 70% | No mass change |

Second part, led by results:

| CAD-HPLC Area % ([1]; 80° C., closed vial, 1 day) | CAD-HPLC Area % ([1]; 80° C., closed vial, 3 days) | CAD-HPLC Area % ([1]; 80° C., closed vial, 7 days) | CAD-HPLC Area % ([1]; starting material) | relative humidity above which the salt is hygroscopic ([3]; DVS) | gain in weight when increasing the RH from 0 to 75% ([3]; DVS, RH 0 to 75%) | weight change when decreasing the relative humidity from 50 to 0% ([3]; DVS, RH 50 to 0%) | additional weight gain upon storage at 95% RH ([3]; DVS) | mass gain until 95% RH ([3]; DVS) | XRPD of sample recovered after DVS measurement [3] | gain in weight when increasing the RH from 0 to 80% ([3]; DVS) | weight loss when decreasing the relative humidity from 50 to 0% RH ([3]; DVS, RH 50 to 0%) | gain in weight at 95% RH compared to the first cycle ([3]; DVS, second cycle) | Decomposition observable above [4] | Compound | NMR after storage compared to the non-stressed sample ([1]; 80° C., seven days) | effect on activity of mutant GCase [2] | relative humidity up to which the salt is not hygroscopic ([3]; DVS) | mass change upon increasing the relative humidity from 0% to 70% ([3]; DVS, RH 0% to 70%) |
| --- | --- | --- | --- | --- | --- | --- | --- | --- | --- | --- | --- | --- | --- | --- | --- | --- | --- | --- |
| 83.6% | 82.9% | 83.6% | 85.9% | 80 % RH | no gain in weight | No significant loss in weight | 90% | 30% | corresponds to the starting material | – | – | – | – | isofagomine oxalate [SP245-OXA-P1] | – | – | – | – |
| 83.9% | 84.1% | 85.3% | 84.3% | – | – | – | – | – | – | – | – | – | – | O=C(O)C(O)C(O)C(=O)O.OC[C@H]1CNC[C@@H](O)[C@@H]1O [SP245-LTA-P5, IFG L-(+)-tartrate] | – | – | – | – |
| – | – | – | – | about 80 % RH | – | No significant loss in weight | 70% | 20% | no form change was observed | no gain in weight | – | – | above 200 °C | isofagomine quinate [SP245-QNC-P2] | – | – | – | – |
